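Compound exposure: 48 hours, 5 concentrations, 96-well plates. At the GI50, growth is halved.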 The source made the active and inactive calls. Cut-off read from the data, not from the text of the source: active = GI50 up to about 1.1 µM and inactive = higher. Bounds are passed on as bounds.

Test systems include CAKI-1; COLO 205; IGROV-1; MCF7; NCI/ADR-RES; OVCAR-5; SF-295; SW-620; DU-145; Hs-578T; M14; MDA-MB-231; MDA-MB-435; MDA-N; NCI-H522; PC-3; SR; T47D; BT-549.
Holding throughout (experiment): NCI-60 cell line screen, 48 h

In the case of `CCCSc1nc(COC(=O)NC)c(COC(=O)NC)n1C`, the GI50 in the test with CAKI-1 was 48.1 µM (inactive); in the test on COLO 205, > 100 µM (inactive); with IGROV-1, > 100 µM (inactive); in the test with MCF7 it was 47.6 µM (inactive); in the test on NCI/ADR-RES, > 100 µM (inactive); in the test with OVCAR-5 it was > 100 µM (inactive). Also, the figures for the GI50 with SF-295 and with SW-620 were > 100 µM (inactive) and > 95.7 µM (inactive), respectively.

In the case of `CCOP(=O)(OCC)C(Cc1c[nH]c2ccccc12)C(=O)O` (stereo not drawn), the GI50 with CAKI-1, with COLO 205, in the test with DU-145, in the test on Hs-578T, with IGROV-1 and in the test on M14 was > 100 µM (inactive) in each case. Further, the GI50 in the test with MCF7 was 37.2 µM (inactive); with MDA-MB-231, > 100 µM (inactive); with MDA-MB-435 it was > 100 µM (inactive); with MDA-N, > 100 µM (inactive); in the test with NCI-H522, > 100 µM (inactive); in the test with NCI/ADR-RES, > 100 µM (inactive). Moreover, the GI50 with OVCAR-5, in the test on PC-3, with SF-295, in the test on SR, with SW-620 and in the test with T47D was > 100 µM (inactive) each time.

For the compound `CC(NC(=O)c1ccc(OP(=O)(OCC2=CC(=O)c3ccccc3C2=O)N(C)CCCCCl)cc1)c1ccc(OCC2CCCCC2)c(C(N)=O)c1` (stereo not drawn), the GI50 was 9.44 µM (inactive) with CAKI-1; 7.28 µM (inactive) in the test on COLO 205; 3.5 µM (inactive) in the test on DU-145; 2.52 µM (inactive) in the test with Hs-578T; 9.66 µM (inactive) in the test on IGROV-1; 3.32 µM (inactive) with M14. For the same compound, the GI50 is 11.4 µM (inactive) with MCF7; 8.99 µM (inactive) in the test on MDA-MB-231; 2.47 µM (inactive) with MDA-MB-435; 2.72 µM (inactive) in the test on MDA-N; 11.8 µM (inactive) in the test with NCI-H522; 14.8 µM (inactive) in the test on NCI/ADR-RES. Also, the GI50 with OVCAR-5 is 21.4 µM (inactive); with PC-3, 14.2 µM (inactive); in the test with SF-295, 5.06 µM (inactive); in the test with SR it was 12.6 µM (inactive); with SW-620, 12.4 µM (inactive); in the test on T47D, 0.0891 µM (active).

In the case of `CC1(C)C2CCC3(OCCO3)C1C1OC12` (stereo not drawn), the GI50 in the test with CAKI-1 was 44.3 µM (inactive); in the test on COLO 205, > 100 µM (inactive); with M14 it was > 100 µM (inactive); with NCI-H522 it was > 100 µM (inactive); in the test with OVCAR-5, > 100 µM (inactive); with SF-295, > 100 µM (inactive). For the same compound, in the test on SW-620, the GI50 was > 100 µM (inactive).

Regarding `O=[N+]([O-])/C=C/c1cn(CCCCCCCCn2cc(/C=C/[N+](=O)[O-])c3ccccc32)c2ccccc12`, the GI50 in the test with CAKI-1 is 0.689 µM (active); with COLO 205, > 10 µM (inactive); with DU-145, > 10 µM (inactive); with Hs-578T, 6.92 µM (inactive); in the test with IGROV-1 it was > 10 µM (inactive); in the test on M14, > 10 µM (inactive). Besides, the GI50 with MDA-MB-231 was > 10 µM (inactive); in the test on MDA-MB-435 it was 0.327 µM (active); in the test on MDA-N, 0.61 µM (active); in the test on NCI-H522 it was > 10 µM (inactive); with NCI/ADR-RES it was > 10 µM (inactive); in the test with OVCAR-5 it was > 10 µM (inactive). Besides, the GI50 in the test on PC-3, in the test on SF-295, with SR, in the test with SW-620 and in the test on T47D was > 10 µM (inactive) in each case.

As to `Cc1c2c(n(CCN(C)C)c1C)NN=C(C#N)S2(=O)=O`, the GI50 with COLO 205, with DU-145, in the test on Hs-578T, in the test on IGROV-1, in the test with M14 and in the test on MCF7 was > 100 µM (inactive) each time. Further, the GI50 with MDA-MB-231, in the test with MDA-MB-435, with MDA-N, in the test with NCI/ADR-RES, with OVCAR-5 and in the test on PC-3 was > 100 µM (inactive) each time. For the same compound, the GI50 in the test on SW-620 and in the test with T47D was > 100 µM (inactive) in each case.

In the case of `CC#C[C@@]1(O)CCCC[C@@H]1O`, the GI50 in the test with COLO 205, with IGROV-1, in the test on M14, in the test on NCI-H522, with SF-295 and in the test on SW-620 was > 100 µM (inactive) each time.

With `CC1(C)OCC[C@@H]1[Si](C)(C)C`, the GI50 is > 100 µM (inactive) in the test on COLO 205; > 100 µM (inactive) in the test on IGROV-1; > 100 µM (inactive) in the test on M14; 15.3 µM (inactive) in the test on NCI-H522; > 100 µM (inactive) in the test with OVCAR-5; 90.8 µM (inactive) in the test with SF-295. For the same compound, in the test with SW-620, the GI50 was > 100 µM (inactive).

Consider `O=c1[nH]c2cc(C(F)(F)F)ccc2nc1C(F)(F)F`, for which the GI50 in the test with BT-549 is 44.2 µM (inactive); in the test on CAKI-1 it was 30.3 µM (inactive); in the test on COLO 205 it was 30.9 µM (inactive); with DU-145 it was 33.8 µM (inactive); in the test with IGROV-1, 29.3 µM (inactive); in the test on M14 it was 45.1 µM (inactive). The GI50 was 53.6 µM (inactive) in the test with MCF7; 31.3 µM (inactive) in the test with MDA-MB-231; 34 µM (inactive) in the test on MDA-MB-435; 32.7 µM (inactive) in the test with MDA-N; 29.4 µM (inactive) in the test on NCI-H522; 37.9 µM (inactive) with NCI/ADR-RES. Also, the GI50 was 36.9 µM (inactive) in the test with OVCAR-5; 37.8 µM (inactive) with PC-3; 30 µM (inactive) with SF-295; 55.8 µM (inactive) with SR; 53.3 µM (inactive) in the test with SW-620; 36.6 µM (inactive) with T47D.

Turning to `O=c1cc(NNc2ccccc2)[nH]c(=O)[nH]1`, the GI50 in the test with COLO 205 was 17.9 µM (inactive); in the test on DU-145 it was > 100 µM (inactive); in the test with Hs-578T it was 80.7 µM (inactive); with IGROV-1, 34.9 µM (inactive); with MCF7 it was 12.9 µM (inactive); in the test with MDA-MB-231, 15.8 µM (inactive). For the same compound, the GI50 was 19 µM (inactive) in the test on MDA-MB-435; 20.2 µM (inactive) in the test on MDA-N; 20.5 µM (inactive) in the test with NCI-H522; 22.8 µM (inactive) in the test on NCI/ADR-RES; > 100 µM (inactive) in the test on OVCAR-5; 21.9 µM (inactive) in the test on PC-3. The GI50 in the test on SF-295 was 37.9 µM (inactive); in the test with SR it was 28.2 µM (inactive); in the test with SW-620, > 10 µM (inactive); in the test on T47D it was > 10 µM (inactive).

As to `COc1cccc(-c2[nH]c3cc4c(cc3c(=O)c2C(=O)O)OCO4)c1`, the GI50 was 51.3 µM (inactive) in the test on BT-549; 72.8 µM (inactive) in the test with CAKI-1; 26.5 µM (inactive) in the test on COLO 205; 38.7 µM (inactive) in the test on DU-145; 37.8 µM (inactive) in the test with IGROV-1; 26 µM (inactive) in the test with M14. The GI50 with MCF7 is 41 µM (inactive); with MDA-MB-231, 57.5 µM (inactive); in the test on MDA-MB-435, 8.39 µM (inactive); in the test on MDA-N, 9.84 µM (inactive); in the test on NCI/ADR-RES it was 17.8 µM (inactive); in the test with OVCAR-5, > 100 µM (inactive). Besides, the GI50 with PC-3 was 57.5 µM (inactive); in the test with SF-295 it was 23.8 µM (inactive); with SR, 8.73 µM (inactive); in the test with SW-620 it was 29 µM (inactive); in the test with T47D, > 100 µM (inactive).

`COC(=O)C1CCC(=O)N1C(c1ccc2c(c1)OCO2)c1cc(OC)c(OC)c(OC)c1` (stereo not drawn): the GI50 in the test on BT-549, with CAKI-1, in the test with COLO 205, in the test on DU-145, in the test on Hs-578T and in the test with IGROV-1 was > 100 µM (inactive) each time. The GI50 in the test with M14 is > 100 µM (inactive); in the test on MCF7, > 100 µM (inactive); in the test with MDA-MB-231, > 100 µM (inactive); with MDA-MB-435, > 100 µM (inactive); with MDA-N it was > 100 µM (inactive); in the test with NCI-H522, 6.35 µM (inactive). Besides, the GI50 with OVCAR-5, in the test with PC-3, with SF-295, with SR and in the test on SW-620 was > 100 µM (inactive) throughout.

Turning to `CN=S(=O)(C[C@]1(O)CC2OC1C1OC(C)(C)OC21)c1ccccc1` (stereo partly drawn), the GI50 with CAKI-1, in the test with COLO 205, with IGROV-1, in the test with M14, in the test with NCI-H522 and in the test on OVCAR-5 was > 100 µM (inactive) each time. Moreover, the GI50 in the test with SF-295 and with SW-620 was > 100 µM (inactive) throughout.

Consider `O=C1OC(c2ccc(O)cc2)(c2ccc(O)cc2)c2ccc(Cl)c3cccc1c23.O=C1OC(c2ccc(O)cc2)(c2ccc(O)cc2)c2cccc3c(Cl)ccc1c23`, for which the GI50 is 11.8 µM (inactive) in the test on BT-549; 8.51 µM (inactive) in the test on CAKI-1; 1.03 µM (active) in the test on COLO 205; 75 µM (inactive) in the test with DU-145; 12.1 µM (inactive) in the test with Hs-578T; 12.5 µM (inactive) in the test on IGROV-1. In addition, the GI50 in the test on M14 is 10 µM (inactive); in the test with MCF7, 13.6 µM (inactive); with MDA-MB-231, 10.7 µM (inactive); in the test on MDA-MB-435, 9.46 µM (inactive); in the test on MDA-N, 11.8 µM (inactive); in the test on NCI/ADR-RES it was 11.7 µM (inactive). Also, the GI50 with OVCAR-5 is 9.84 µM (inactive); in the test on PC-3 it was 3.48 µM (inactive); with SF-295, 12.2 µM (inactive); with SR it was 9.04 µM (inactive); with SW-620, 14.9 µM (inactive).
